12 compounds from patent US11180495B2 (Abbisko Therapeutics Co., Ltd., priority 2017, dated 2021) can be followed below.

For one assay, the target named is T1, CSF-1R (Homo sapiens, UniProt P07333).
T1 construct: 3.95 nM of CSF-1R, 500 μM of ATP and 0.2 mg/mL of polypeptide
Put plainly: CSF-1R in vitro biochemical kinase study (ADP-Glo assay). The settings on record: 3.95 nM CSF-1R, 500 μM ATP, 30° C. 60 min, read-out: Enzymatic experiment CSF-1R IC50. As for the experimental part: In the present invention, the inhibitory activity of compounds against the CSF-1R activity was determined by using CSF-1R ADP-Glo assay. The compound-mediated inhibition effect was achieved by inhibiting the production of ADP from consumption of ATP, and the activities of compounds were evaluated by using the ADP-Glo kit (Promega, cat. No. V9101). The specific experimental process was as follows: • 1. The kinase reaction performed in the present invention was carried out in a 384-well plate (Perkinelmer, cat. No. 6007290), and 3.95 nM of CSF-1R, 500 μM of ATP and 0.2 mg/mL of polypeptide (Poly (Glu4, Try1), Sigma, cat. No. P0275) were respectively weighed and added to each well: • 2. following reagents were then added to each well to reach the final reaction system: 40 mM Tris, pH 7.5, 20 mM MgCl2, 0.01% Triton X-100, 0.1 mg/mL BSA, 2.5 mM DTT and 0.1% DMSO; • 3. the reaction was conducted at 30° C. for 60 min; • 4. then an equal volume of stop solution (ADP-Glo) was added to the kinase reaction system; • 5. the mixed solution was incubated at 25° C. for 60 min, and the kinase reaction was then terminated; • 6. a two-fold volume of detection reagent was then added to each well; • 7. the mixed solution was incubated at 25° C. for 30 min; • 8. the compound IC50 value was measured by using a plate reader (Tecan, M1000) and a four-parameter curve was generated in Graphpad Prism. B. KIT/PDGFRA In Vitro Biochemical Kinase Study • 1. Preparation of 1-fold kinase buffer and stop solution • 1.1 1-fold kinase buffer: 50 mM HEPES, pH 7.5, 0.0015% Brij-35. • 1.2 stop solution: 100 mM HEPES, pH 7.5, 0.015% Brij-35, 0.2% Coating Reagent #3 50 mM EDTA • 2. Preparation of compound solution • 2.1 Dilution of compound solution • 1) The final concentration of the compound solution was 40 μM. and the concentration of the prepared stock solution was 50 times of the final concentration, i.e., 2 mM. • 2) 80 μL of 100% DMSO was added to the second well of the 96-well plate, then 20 μL of 10 mM compound solution was added, and thereby 2 mM compound solution was prepared, 60 μL of 100% DMSO was added to other wells, 20 μL of compound was taken from the second well, added to the third well and diluted by 4 times. This serial 4-time dilution was conducted in sequence for the total of 10 concentrations. • 2.2 5-fold compound solution transferred to a reaction plate • 1) 10 μL of solution was taken from each well of the above 96-well plate and added to another 96-well plate, and 90 μL of kinase buffer was added. • 2) 5 μL of solution was taken from the above 96-well plate and added to a 384-well reaction plate. • 2.3 Kinase reaction • 1) KIT/PDGFRA kinase was added to the 1-fold kinase buffer solution to obtain a 2.5-fold kinase solution. • 2) FAM-labeled polypeptide and ATP were added to the 1-fold kinase buffer solution to obtain a 2.5-fold substrate solution. • 3) 10 μL of 2.5-fold kinase solution was added to the 384-well reaction plate, which already contained 5 μL of 5-fold compound in 10% DMSO. And the mixed solution was incubated at room temperature for 10 min. • 4) 10 μL of 2.5-fold substrate solution was added to the 384-well reaction plate. • 5) Kinase reaction and termination: the mixed solution was incubated at 28° C. for a certain period of time, and 25 μL of stop solution was added to stop the reaction. • 2.4 Data reading of Caliper EZ Reader II • 2.5 Calculation of percent inhibition and IC50 • 1) Percent conversion data were copied from the Caliper EZ Reader. • 2) Percent conversion was converted into percent inhibition data, wherein, max referred to percent conversion of the DMSO control, and min referred to percent conversion of the negative control without kinase activity. Percent inhibition=(max−conversion)/(max−min)*100. • 3) The IC50 value was fitted with XLFit excel add-in version 5.4.0.8: Fitting formula: Y=Bottom+(Top−Bottom)/(1+(IC50/X)^HillSlope).
A general note: ADP-Glo turns the ADP formed in a reaction into a luminescent signal.

The subject of assay [1] is MV-4-11 human acute monocytic leukemia cells. Put plainly: FLT3-related cell proliferation experiment (Cell Titer Glo). Type of assay: cell-based. The following applies: MV4-11, 72 h, MV-4-11 cells, 3 days, CTG, read-out: Cytological experiment FLT3 IC50. As for the experimental part:
Functional effects of compounds on the proliferation of several cell lines were evaluated by Cell Titer Glo (CTG) studies in the present invention, and effects of the compounds on the proliferation of different cells were evaluated to determine the selectivity degree of the compounds. In the study, M-07e human cytomegalic leukemia cells (cat. No. CBP60791) from Nanjing Kebai Biotechnology Co., Ltd. were cultured in an incubator under conditions of RPMI1640 (Gibco, cat. No. 11875-119), 20% fetal bovine serum (Gibco, 10099-141), human 10 ng/mL GM-CSF granulocyte macrophage colony-stimulating factors (R&D, cat. No. 215-GM-010), 37° C. and 5% CO2; and Kasumi-1 human acute myeloblastic leukemia cells (cat. No. CBP60524) were cultured in an incubator under conditions of RPMI1640 (Gibco, cat. No. 11875-119), 20% fetal bovine serum (Gibco, 10099-141), 37° C. and 5% CO2; NCI-H1703 human non-small cell lung squamous carcinoma cells (cat. No. CBP60115) were cultured in an incubator under conditions of RPMI1640 (Gibco, cat. No. 11875-119), 10% fetal bovine serum (Gibco, 10099-141), 37° C. and 5% CO2; and MV-4-11 human acute monocytic leukemia cells (cat. No. CBP60522) were cultured in an incubator under conditions of IMDM (Invitrogen, cat. No. 12440053), 20% fetal bovine serum (Gibco, 10099-141), 37° C. and 5% CO2. Since ATP is an index for viable cell metabolism, CTG (Promega, #G7573) reagent is a homogeneous detection method for detecting the number of viable cells in the culture by quantifying ATP. Therefore, compound-mediated inhibition for cell proliferation/survival was evaluated by quantifying ATP content in cells, and the specific experimental process was as follows.
III) MV-4-11 Human Acute Monocytic Leukemia Cell • 1.

Molecules are shown by their SMILES.

T1 sequence (P07333 20-972): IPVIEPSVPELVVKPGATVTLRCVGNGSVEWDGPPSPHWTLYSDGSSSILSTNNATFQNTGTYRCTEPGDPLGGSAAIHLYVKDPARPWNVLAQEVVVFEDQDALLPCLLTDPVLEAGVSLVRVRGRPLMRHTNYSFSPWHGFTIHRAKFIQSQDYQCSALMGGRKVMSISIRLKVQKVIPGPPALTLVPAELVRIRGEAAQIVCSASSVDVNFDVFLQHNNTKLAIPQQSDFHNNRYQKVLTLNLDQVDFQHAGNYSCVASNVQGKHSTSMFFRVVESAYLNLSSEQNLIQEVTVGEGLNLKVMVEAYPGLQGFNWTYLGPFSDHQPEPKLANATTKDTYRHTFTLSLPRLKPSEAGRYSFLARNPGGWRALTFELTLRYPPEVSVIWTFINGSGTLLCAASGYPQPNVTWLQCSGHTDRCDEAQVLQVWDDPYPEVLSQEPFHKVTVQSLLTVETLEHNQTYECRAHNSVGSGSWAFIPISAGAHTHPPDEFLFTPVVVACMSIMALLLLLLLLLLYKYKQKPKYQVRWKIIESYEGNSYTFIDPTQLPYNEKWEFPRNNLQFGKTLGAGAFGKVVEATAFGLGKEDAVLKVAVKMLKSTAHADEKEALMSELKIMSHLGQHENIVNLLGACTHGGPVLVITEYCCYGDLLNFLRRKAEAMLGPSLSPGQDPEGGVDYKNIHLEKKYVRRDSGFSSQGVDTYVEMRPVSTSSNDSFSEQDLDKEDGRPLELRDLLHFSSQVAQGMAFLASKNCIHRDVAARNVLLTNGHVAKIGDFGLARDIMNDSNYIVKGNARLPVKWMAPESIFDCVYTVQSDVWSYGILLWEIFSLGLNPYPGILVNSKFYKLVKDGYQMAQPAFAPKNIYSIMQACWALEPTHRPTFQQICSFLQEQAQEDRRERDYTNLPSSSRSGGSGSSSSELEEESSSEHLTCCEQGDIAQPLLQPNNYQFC

Consider `Cc1nc(-c2cnc(NC(C)C)[nH]c2=O)ccc1Cc1c[nH]c2ncc(F)cc12` [Example 5, 5-(5-((5-fluoro-1H-pyrrolo[2,3-b]pyridin-3-yl)methyl)-6-methylpyridin-2-yl)-2-(isopropylamino)pyrimidin-4(3H)-one], for which the IC50 is 45.9 nM at CSF-1R and above 2000 nM in assay [1].

Consider `Cc1nc(-c2cnc3n(c2=O)CCCN3C)ccc1Cc1c[nH]c2ncc(-c3cnn(C)c3)cc12` [Example 18, 9-methyl-3-(6-methyl-5-((5-(1-methyl-1H-pyrazol-4-yl)-1H-pyrrolo[2,3-b]pyridin-3-yl)methyl)pyridin-2-yl)-6,7,8,9-tetrahydro-4H-pyrimido[1,2-a]pyrimidin-4-one], for which the IC50 at CSF-1R turned out to be 4.34 nM; in assay [1], 505 nM.

Take `Cc1nc(-c2cnc3n(c2=O)CCC(C)N3C)ccc1Cc1c[nH]c2ncc(Cl)cc12` (stereo not drawn) [Example 15, 3-(5-((5-chloro-1H-pyrrolo[2,3-b]pyridin-3-yl)methyl)-6-methylpyridin-2-yl)-8,9-dimethyl-6,7,8,9-tetrahydro-4H-pyrimido[1,2-a]pyrimidin-4-one]: the figures for the IC50 (on CSF-1R; in assay [1]) were 49.5 nM and above 2000 nM, respectively.

Take `Cc1nc(-c2cnc3n(c2=O)CCCN3C)ccc1Cc1c[nH]c2ncc(Cl)cc12` [Example 13, 3-(5-((5-chloro-1H-pyrrolo[2,3-b]pyridin-3-yl)methyl)-6-methylpyridin-2-yl)-9-methyl-6,7,8,9-tetrahydro-4H-pyrimido[1,2-a]pyrimidin-4-one]: the IC50 is 65.6 nM at CSF-1R and above 6000 nM in assay [1].

Consider `Cc1nc(-c2cnc3n(c2=O)CCCN3C)ccc1Cc1c[nH]c2ncc(F)cc12` [Example 20, 3-(5-((5-fluoro-1H-pyrrolo[2,3-b]pyridin-3-yl)methyl)-6-methylpyridin-2-yl)-9-methyl-6,7,8,9-tetrahydro-4H-pyrimido[1,2-a]pyrimidin-4-one], for which the values for the IC50 (on CSF-1R; in assay [1]) were 46.1 nM and above 18000 nM, respectively.

On to `Cc1nc(-c2cnc3n(c2=O)CCCN3C)ccc1Cc1c[nH]c2ncc(O)cc12` [Example 23], for which the IC50 is 38.9 nM at CSF-1R and above 2000 nM in assay [1].

`CCN1CCCn2c1ncc(-c1ccc(Cc3c[nH]c4ncc(Cl)cc34)c(C)n1)c2=O` [Example 16, 3-(5-((5-chloro-1H-pyrrolo[2,3-b]pyridin-3-yl)methyl)-6-methylpyridin-2-yl)-9-ethyl-6,7,8,9-tetrahydro-4H-pyrimido[1,2-a]pyrimidin-4-one]: the IC50 on CSF-1R was 45.6 nM; in assay [1], 876 nM.

Turning to `CCN1CCCn2c1ncc(-c1ccc(Cc3c[nH]c4ncc(-c5cnn(C)c5)cc34)c(C)n1)c2=O` [Example 17], the results for the IC50 (at CSF-1R; in assay [1]) were 5.35 nM and 27.4 nM, respectively.

As for `Cc1nc(-c2cnc3n(c2=O)CCCN3C)ccc1Cc1c[nH]c2ncccc12` [Example 14, 3-(5-((1H-pyrrolo[2,3-b]pyridin-3-yl)methyl)-6-methylpyridin-2-yl)-9-methyl-6,7,8,9-tetrahydro-4H-pyrimido[1,2-a]pyrimidin-4-one], the values for the IC50 (at CSF-1R; in assay [1]) were 55.2 nM and above 18000 nM, respectively.

With `COc1cnc2[nH]cc(Cc3ccc(-c4cnc5n(c4=O)CCCN5C)nc3C)c2c1` [Example 22, 3-(5-((5-methoxy-1H-pyrrolo[2,3-b]pyridin-3-yl)methyl)-6-methylpyridin-2-yl)-9-methyl-6,7,8,9-tetrahydro-4H-pyrimido[1,2-a]pyrimidin-4-one], the values for the IC50 (at CSF-1R; in assay [1]) were 43.5 nM and above 6000 nM, respectively.

With `Cc1nc(-c2cnc(NC(C)C)n(C)c2=O)ccc1Cc1c[nH]c2ncccc12` [Example 7, 5-(5-((1H-pyrrolo[2,3-b]pyridin-3-yl)methyl)-6-methylpyridin-2-yl)-2-(isopropylamino)-3-methylpyrimidin-4(3H)-one], the results for the IC50 (at CSF-1R; in assay [1]) were 36.7 nM and 1290 nM, respectively.

Turning to `Cc1cnc2[nH]cc(Cc3ccc(-c4cnc5n(c4=O)CCCN5C)nc3C)c2c1` [Example 21, 9-methyl-3-(6-methyl-5-((5-methyl-1H-pyrrolo[2,3-b]pyridin-3-yl)methyl)pyridin-2-yl)-6,7,8,9-tetrahydro-4H-pyrimido[1,2-a]pyrimidin-4-one], the values for the IC50 (on CSF-1R; in assay [1]) were 96.3 nM and above 18000 nM, respectively.

The term IC50 denotes the concentration at which inhibition is half-maximal.
